Measured values published in the supplement of paper PMC8967900.

These compounds were tested on COG-LL-319h (assay: selective drug sensitivity score (sDSS, relative to normal bone marrow) (sDSS (score)); higher = more potent and effective on the cell line relative to normal bone marrow cells). Conditions: 72 h.
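Further: ALL cell lines in 384-well plates, five doses spanning 10,000-fold, each plate scaled between vehicle and 100 µmol/L benzalkonium chloride controls, sDSS an adapted area-under-curve metric.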

Q: For `CC(C)Oc1ccc(-c2nn([C@@H](C)c3oc4ccc(F)cc4c(=O)c3-c3cccc(F)c3)c3ncnc(N)c23)cc1F` [TGR-1202] (top concentration 2500 nM), which “selective drug sensitivity score” value is on record?
A: Its value is 1.64.

Q: For `CN(C(=O)c1ccc(F)cc1C(F)(F)F)C1CCN(c2nnc(-c3ccnn3C)c3ccccc23)CC1` [Taladegib] (top concentration 10000 nM), which “selective drug sensitivity score” value is on record?
A: The value was 5.78.

Q: `COc1cc(Nc2ncc(F)c(Nc3ccc4c(n3)NC(=O)C(C)(C)O4)n2)cc(OC)c1OC` [Tamatinib] (top concentration 10000 nM) was tested. Which “selective drug sensitivity score” value did it give?
A: Its value is -0.72.

Q: How did the “selective drug sensitivity score” value turn out when `Nc1cc(F)ccc1NC(=O)c1ccc(CNC(=O)/C=C/c2cccnc2)cc1` [Tucidinostat] (top concentration 10000 nM) was run?
A: The value was 12.

Q: For `CN[C@@H]1C[C@H]2O[C@@](C)([C@@H]1OC)n1c3ccccc3c3c4c(c5c6ccccc6n2c5c31)C(=O)N[C@H]4O` [UCN-01] (top concentration 10000 nM), which “selective drug sensitivity score” value is on record?
A: Its value is 6.64.

Q: How did the “selective drug sensitivity score” value turn out when `CC(C)Nc1cc(-c2c[nH]c(C(=O)N[C@H](CO)c3cccc(Cl)c3)c2)c(Cl)cn1` [Ulixertinib] (top concentration 10000 nM) was run?
A: The value was -0.78.

Q: How did the “selective drug sensitivity score” value turn out when `Cn1ncc(Cl)c1-c1cc(C(=O)N[C@H](CN)Cc2ccc(F)c(F)c2)oc1Cl` [Uprosertib] (top concentration 10000 nM) was run?
A: The value was 5.3.

Q: With `C=CC(=O)N1CC/C(=C\c2ccc(F)c([N+](=O)[O-])c2)C(=O)/C(=C/c2ccc(F)c([N+](=O)[O-])c2)C1` [VLX1570] (top concentration 10000 nM) as the compound, how does the “selective drug sensitivity score” value read?
A: The value was 2.08.

Q: With `C[C@@H]1COC(Nc2ccc3ncnc(Nc4ccc(OCc5nccs5)c(Cl)c4)c3c2)=N1` [Varlitinib] (top concentration 10000 nM) as the compound, how does the “selective drug sensitivity score” value read?
A: The value was 18.8.

Q: With `CNC(=O)c1cccc(-c2ccc3c(N4CCOC[C@@H]4C)nc(N4CCOC[C@@H]4C)nc3n2)c1` [Vistusertib] (top concentration 10000 nM) as the compound, how does the “selective drug sensitivity score” value read?
A: The value was 10.6.

The compounds below were run on PEER in the same assay as above. Conditions: 72 h.

Q: Which “selective drug sensitivity score” value does the source give for `CC(C)Oc1ccc(-c2nn([C@@H](C)c3oc4ccc(F)cc4c(=O)c3-c3cccc(F)c3)c3ncnc(N)c23)cc1F` [TGR-1202] (top concentration 2500 nM) here?
A: The value was -1.86.

Q: For `CN(C(=O)c1ccc(F)cc1C(F)(F)F)C1CCN(c2nnc(-c3ccnn3C)c3ccccc23)CC1` [Taladegib] (top concentration 10000 nM), which “selective drug sensitivity score” value is on record?
A: The value was 1.88.

Q: With `COc1cc(Nc2ncc(F)c(Nc3ccc4c(n3)NC(=O)C(C)(C)O4)n2)cc(OC)c1OC` [Tamatinib] (top concentration 10000 nM) as the compound, how does the “selective drug sensitivity score” value read?
A: The value was -5.42.

Q: Which “selective drug sensitivity score” value does the source give for `Nc1cc(F)ccc1NC(=O)c1ccc(CNC(=O)/C=C/c2cccnc2)cc1` [Tucidinostat] (top concentration 10000 nM) here?
A: The value was 5.44.

Q: With `CN[C@@H]1C[C@H]2O[C@@](C)([C@@H]1OC)n1c3ccccc3c3c4c(c5c6ccccc6n2c5c31)C(=O)N[C@H]4O` [UCN-01] (top concentration 10000 nM) as the compound, how does the “selective drug sensitivity score” value read?
A: The value was -0.66.

Q: Which “selective drug sensitivity score” value does the source give for `CC(C)Nc1cc(-c2c[nH]c(C(=O)N[C@H](CO)c3cccc(Cl)c3)c2)c(Cl)cn1` [Ulixertinib] (top concentration 10000 nM) here?
A: Its value is 3.62.

Q: `Cn1ncc(Cl)c1-c1cc(C(=O)N[C@H](CN)Cc2ccc(F)c(F)c2)oc1Cl` [Uprosertib] (top concentration 10000 nM) was tested. Which “selective drug sensitivity score” value did it give?
A: Its value is 8.5.

Q: For `C=CC(=O)N1CC/C(=C\c2ccc(F)c([N+](=O)[O-])c2)C(=O)/C(=C/c2ccc(F)c([N+](=O)[O-])c2)C1` [VLX1570] (top concentration 10000 nM), which “selective drug sensitivity score” value is on record?
A: Its value is -4.72.

Q: Which “selective drug sensitivity score” value does the source give for `C[C@@H]1COC(Nc2ccc3ncnc(Nc4ccc(OCc5nccs5)c(Cl)c4)c3c2)=N1` [Varlitinib] (top concentration 10000 nM) here?
A: Its value is 0.12.

Q: How did the “selective drug sensitivity score” value turn out when `CNC(=O)c1cccc(-c2ccc3c(N4CCOC[C@@H]4C)nc(N4CCOC[C@@H]4C)nc3n2)c1` [Vistusertib] (top concentration 10000 nM) was run?
A: Its value is 5.22.

The compounds below were run on KARPAS-45 in the same assay as above. Conditions: 72 h.

Q: How did the “selective drug sensitivity score” value turn out when `CC(C)Oc1ccc(-c2nn([C@@H](C)c3oc4ccc(F)cc4c(=O)c3-c3cccc(F)c3)c3ncnc(N)c23)cc1F` [TGR-1202] (top concentration 2500 nM) was run?
A: The value was -2.36.

Q: For `CN(C(=O)c1ccc(F)cc1C(F)(F)F)C1CCN(c2nnc(-c3ccnn3C)c3ccccc23)CC1` [Taladegib] (top concentration 10000 nM), which “selective drug sensitivity score” value is on record?
A: Its value is -0.92.

Q: How did the “selective drug sensitivity score” value turn out when `COc1cc(Nc2ncc(F)c(Nc3ccc4c(n3)NC(=O)C(C)(C)O4)n2)cc(OC)c1OC` [Tamatinib] (top concentration 10000 nM) was run?
A: Its value is -2.92.

Q: `Nc1cc(F)ccc1NC(=O)c1ccc(CNC(=O)/C=C/c2cccnc2)cc1` [Tucidinostat] (top concentration 10000 nM) was tested. Which “selective drug sensitivity score” value did it give?
A: Its value is 8.74.

Q: How did the “selective drug sensitivity score” value turn out when `CN[C@@H]1C[C@H]2O[C@@](C)([C@@H]1OC)n1c3ccccc3c3c4c(c5c6ccccc6n2c5c31)C(=O)N[C@H]4O` [UCN-01] (top concentration 10000 nM) was run?
A: Its value is 6.74.

Q: With `CC(C)Nc1cc(-c2c[nH]c(C(=O)N[C@H](CO)c3cccc(Cl)c3)c2)c(Cl)cn1` [Ulixertinib] (top concentration 10000 nM) as the compound, how does the “selective drug sensitivity score” value read?
A: The value was -0.18.

Q: With `Cn1ncc(Cl)c1-c1cc(C(=O)N[C@H](CN)Cc2ccc(F)c(F)c2)oc1Cl` [Uprosertib] (top concentration 10000 nM) as the compound, how does the “selective drug sensitivity score” value read?
A: The value was 5.6.

Q: How did the “selective drug sensitivity score” value turn out when `C=CC(=O)N1CC/C(=C\c2ccc(F)c([N+](=O)[O-])c2)C(=O)/C(=C/c2ccc(F)c([N+](=O)[O-])c2)C1` [VLX1570] (top concentration 10000 nM) was run?
A: The value was -1.02.

Q: How did the “selective drug sensitivity score” value turn out when `C[C@@H]1COC(Nc2ccc3ncnc(Nc4ccc(OCc5nccs5)c(Cl)c4)c3c2)=N1` [Varlitinib] (top concentration 10000 nM) was run?
A: Its value is -0.18.

Q: With `CNC(=O)c1cccc(-c2ccc3c(N4CCOC[C@@H]4C)nc(N4CCOC[C@@H]4C)nc3n2)c1` [Vistusertib] (top concentration 10000 nM) as the compound, how does the “selective drug sensitivity score” value read?
A: Its value is 5.02.

Each compound was assayed on MOLT-16 in the same assay as above. Conditions: 72 h.

Q: Which “selective drug sensitivity score” value does the source give for `CC(C)Oc1ccc(-c2nn([C@@H](C)c3oc4ccc(F)cc4c(=O)c3-c3cccc(F)c3)c3ncnc(N)c23)cc1F` [TGR-1202] (top concentration 2500 nM) here?
A: The value was -2.46.

Q: How did the “selective drug sensitivity score” value turn out when `CN(C(=O)c1ccc(F)cc1C(F)(F)F)C1CCN(c2nnc(-c3ccnn3C)c3ccccc23)CC1` [Taladegib] (top concentration 10000 nM) was run?
A: Its value is 3.88.

Q: With `COc1cc(Nc2ncc(F)c(Nc3ccc4c(n3)NC(=O)C(C)(C)O4)n2)cc(OC)c1OC` [Tamatinib] (top concentration 10000 nM) as the compound, how does the “selective drug sensitivity score” value read?
A: The value was -5.42.

Q: How did the “selective drug sensitivity score” value turn out when `Nc1cc(F)ccc1NC(=O)c1ccc(CNC(=O)/C=C/c2cccnc2)cc1` [Tucidinostat] (top concentration 10000 nM) was run?
A: Its value is 4.54.

Q: How did the “selective drug sensitivity score” value turn out when `CN[C@@H]1C[C@H]2O[C@@](C)([C@@H]1OC)n1c3ccccc3c3c4c(c5c6ccccc6n2c5c31)C(=O)N[C@H]4O` [UCN-01] (top concentration 10000 nM) was run?
A: Its value is 8.64.

Q: With `CC(C)Nc1cc(-c2c[nH]c(C(=O)N[C@H](CO)c3cccc(Cl)c3)c2)c(Cl)cn1` [Ulixertinib] (top concentration 10000 nM) as the compound, how does the “selective drug sensitivity score” value read?
A: Its value is 2.42.

Q: `Cn1ncc(Cl)c1-c1cc(C(=O)N[C@H](CN)Cc2ccc(F)c(F)c2)oc1Cl` [Uprosertib] (top concentration 10000 nM) was tested. Which “selective drug sensitivity score” value did it give?
A: Its value is 19.1.

Q: With `C=CC(=O)N1CC/C(=C\c2ccc(F)c([N+](=O)[O-])c2)C(=O)/C(=C/c2ccc(F)c([N+](=O)[O-])c2)C1` [VLX1570] (top concentration 10000 nM) as the compound, how does the “selective drug sensitivity score” value read?
A: Its value is -1.32.

Q: `C[C@@H]1COC(Nc2ccc3ncnc(Nc4ccc(OCc5nccs5)c(Cl)c4)c3c2)=N1` [Varlitinib] (top concentration 10000 nM) was tested. Which “selective drug sensitivity score” value did it give?
A: The value was -0.18.

Q: With `CNC(=O)c1cccc(-c2ccc3c(N4CCOC[C@@H]4C)nc(N4CCOC[C@@H]4C)nc3n2)c1` [Vistusertib] (top concentration 10000 nM) as the compound, how does the “selective drug sensitivity score” value read?
A: Its value is 5.62.

The compounds below were run on MOLT-14 in the same assay as above. Conditions: 72 h.

Q: For `CC(C)Oc1ccc(-c2nn([C@@H](C)c3oc4ccc(F)cc4c(=O)c3-c3cccc(F)c3)c3ncnc(N)c23)cc1F` [TGR-1202] (top concentration 2500 nM), which “selective drug sensitivity score” value is on record?
A: The value was -2.56.

Q: For `CN(C(=O)c1ccc(F)cc1C(F)(F)F)C1CCN(c2nnc(-c3ccnn3C)c3ccccc23)CC1` [Taladegib] (top concentration 10000 nM), which “selective drug sensitivity score” value is on record?
A: The value was -1.12.

Q: How did the “selective drug sensitivity score” value turn out when `COc1cc(Nc2ncc(F)c(Nc3ccc4c(n3)NC(=O)C(C)(C)O4)n2)cc(OC)c1OC` [Tamatinib] (top concentration 10000 nM) was run?
A: The value was -4.62.

Q: Which “selective drug sensitivity score” value does the source give for `Nc1cc(F)ccc1NC(=O)c1ccc(CNC(=O)/C=C/c2cccnc2)cc1` [Tucidinostat] (top concentration 10000 nM) here?
A: Its value is 3.94.

Q: `CN[C@@H]1C[C@H]2O[C@@](C)([C@@H]1OC)n1c3ccccc3c3c4c(c5c6ccccc6n2c5c31)C(=O)N[C@H]4O` [UCN-01] (top concentration 10000 nM) was tested. Which “selective drug sensitivity score” value did it give?
A: The value was 6.14.

Q: For `CC(C)Nc1cc(-c2c[nH]c(C(=O)N[C@H](CO)c3cccc(Cl)c3)c2)c(Cl)cn1` [Ulixertinib] (top concentration 10000 nM), which “selective drug sensitivity score” value is on record?
A: The value was 6.12.

Q: For `Cn1ncc(Cl)c1-c1cc(C(=O)N[C@H](CN)Cc2ccc(F)c(F)c2)oc1Cl` [Uprosertib] (top concentration 10000 nM), which “selective drug sensitivity score” value is on record?
A: The value was 1.1.

Q: Which “selective drug sensitivity score” value does the source give for `C=CC(=O)N1CC/C(=C\c2ccc(F)c([N+](=O)[O-])c2)C(=O)/C(=C/c2ccc(F)c([N+](=O)[O-])c2)C1` [VLX1570] (top concentration 10000 nM) here?
A: The value was -0.92.

Q: Which “selective drug sensitivity score” value does the source give for `C[C@@H]1COC(Nc2ccc3ncnc(Nc4ccc(OCc5nccs5)c(Cl)c4)c3c2)=N1` [Varlitinib] (top concentration 10000 nM) here?
A: Its value is -0.18.

Q: For `CNC(=O)c1cccc(-c2ccc3c(N4CCOC[C@@H]4C)nc(N4CCOC[C@@H]4C)nc3n2)c1` [Vistusertib] (top concentration 10000 nM), which “selective drug sensitivity score” value is on record?
A: Its value is 2.12.
